Measurements from patent US6387950B2, “Treatment of tumors with RARα selective retinoid compounds in combination with other anti-tumor agents” (Allergan Sales, Inc., priority 2000, dated 2002).

Biological target: T1, RARα receptors (Homo sapiens, UniProt P10276)
T1 construct: made in house; used as extract protein
T1 sequence (P10276 1-462): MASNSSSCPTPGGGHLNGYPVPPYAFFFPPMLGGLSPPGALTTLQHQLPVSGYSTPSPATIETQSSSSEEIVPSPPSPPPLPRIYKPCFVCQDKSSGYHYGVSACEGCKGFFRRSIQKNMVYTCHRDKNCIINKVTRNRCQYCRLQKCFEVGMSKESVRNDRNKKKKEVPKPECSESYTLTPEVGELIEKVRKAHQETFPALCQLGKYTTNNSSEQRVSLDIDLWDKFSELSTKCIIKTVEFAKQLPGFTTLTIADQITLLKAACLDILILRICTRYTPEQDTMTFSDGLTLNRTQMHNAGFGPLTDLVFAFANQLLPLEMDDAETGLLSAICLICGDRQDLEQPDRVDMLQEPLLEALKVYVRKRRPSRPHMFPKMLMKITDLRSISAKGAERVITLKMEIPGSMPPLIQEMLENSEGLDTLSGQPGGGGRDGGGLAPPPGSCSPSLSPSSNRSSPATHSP
Assay: ligand binding assay
Settings: receptor read as RARα from the sentence
Procedure: All binding assays were performed in a similar fashion. All six receptor types were derived from the expressed receptor type (RAR α, β, γ and RXR α, β, γ) expressed in Baculovirus. Stock solutions of all compounds were prepared as 10 mM ethanol solutions and serial dilutions carried out into 1:1 DMSO; ethanol. Assay buffers consisted of the following for all six receptor assays: 8% glycerol. 120 mM KCl. 8 mM Tris. 5 mM CHAPS 4 mM DTT and 0.24 mM PMSF. pH-7.4@room temperature.
All receptor biding assays were performed in the same manner. The final assay volume was 250 μl and contained from 10-40 μg of extract protein depending on receptor being assayed along with 5 nM of [^3H] all-trans retinoic acid or 10 nM [^3H] 9-cis retinoic acid and varying concentrations of competing ligand at concentrations that ranged from 0-10^−5M. The assays were formatted for a 96 well minitube system. Incubations were carried out at 4° C. until equilibrium was achieved. […] The amount of receptor-ligand complex was determined by liquid scintillation counting of hydroxyapitite pellet.
After correcting for non-specific binding, IC50 values were determined. […] The IC50 value was determined graphically from a loglogit plot of the data. The […] were determined by application of the Cheng-Prussof equation to the IC50 values, the labeled ligand concentration and the Kd of the labeled ligand. […]

Kd: 5 nM
SMILES: CC1(C)CCC(C)(C)c2c1cc(C(=O)Nc1cc(F)c(C(=O)O)c(F)c1)c(O)c2Cl [Compound 2, 2,6-Difluoro-4-[(3-hydroxy-4-chloro-5,5,8 8-tetramethyl-5,6,7,8-tetrahydronaphthalene-2-carbonyl) -amino]-benzoic acid]
